Assay results taken from patent US20230085307A1, “PYRIDAZINONE COMPOUND AND HERBICIDE” (NISSAN CHEMICAL CORPORATION, priority 2019, published 2023).

How the values were obtained:
directly sowed rice = assay: Test Example 3: effect on crop by foliage application, Wagner pot (Table 18, symbol b); type: in vivo; settings: 320 g/ha
Protocol: [Test Example 3] Herbicidal Effect Test by Foliage Application After alluvial soil was placed into 1/10000 are of Wagner pot, water was poured and mixed to form a submerged condition having a water depth of 0.1 cm to 0.5 cm. Seeds of barnyard grass, Chinese sprangletop, rice flat sedge, and rice were sowed and the pot was placed in a greenhouse at 25° C. to 30° C. for growth of the plants. After 14-day growth of the plants, the emulsion agent of the compound of the present invention prepared according to Formulation Example 2 was diluted with water so as to achieve a predetermined herbicide amount, and the diluted emulsion agent was uniformly applied to a foliage part with a small-sized spray. Three weeks after the herbicide application, the effect of the herbicide on each plant was evaluated according to the criteria of Test Example 1.

windgrass = assay: Test Example 5: herbicidal effect by foliage application, plastic box (Table 20, symbol L); type: in vivo, windgrass (Apera spica-venti); settings: foliage application, 320 g/ha, 3 weeks after application
In short: (§1)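 Sow seeds spot-wise in sterilized diluvial soil; cover with ~1.5 cm soil. Grow 14 days in greenhouse, 25° C. to 30° C. Spray foliage with emulsion diluted to predetermined amount. Rate effect after 3 weeks.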

blackgrass = assay: Test Example 5: herbicidal effect by foliage application, plastic box (Table 20, symbol J); type: in vivo, blackgrass (Alopecurus myosuroides); settings: foliage application, 320 g/ha, 3 weeks after application
In short: as §1

corn = assay: Test Example 5: effect on crop by foliage application, plastic box (Table 20, symbol c); type: in vivo; settings: 320 g/ha, 3 weeks after application
From the text: (§2) [Test Example 5] Herbicidal Effect Test by Foliage Application
(§3) Sterilized diluvial soil was placed in a plastic box having a length of 21 cm, a width of 13 cm, and a depth of 7 cm. The seeds of each of southern crabgrass, green foxtail, barnyard grass, wild oat, blackgrass, Italian ryegrass, windgrass, velvetleaf, redroot pigweed, lambsquarters, chickweed, false cleavers, persian speedwell, corn, soybean, rice, wheat, beet, and rapeseed were sowed in a spot-like manner and covered with the soil having a thickness of about 1.5 cm. Thereafter, the plants were grown in a greenhouse at 25° C. to 30° C. After 14-day growth of the plants, the emulsion agent of the compound of the present invention prepared according to Formulation Example 2 was diluted with water so as to achieve a predetermined herbicide amount, and the diluted emulsion agent was uniformly applied to a foliage part with a small-sized spray. Three weeks after the herbicide application, the effect of the herbicide on each plant was evaluated according to the criteria of Test Example 1.

rice flat sedge = assay: Test Example 3: herbicidal effect by foliage application, Wagner pot (Table 18, symbol E); type: in vivo, rice flat sedge (Cyperus iria); settings: 320 g/ha
In short: (§4)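 Plants were sown in alluvial soil held under 0.1–0.5 cm standing water and grown 14 days in a greenhouse at 25–30 °C. An emulsifiable formulation, water-diluted to the set dose, was then sprayed onto the foliage, and effects were scored three weeks later using previously defined criteria.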

wild oat = assay: Test Example 5: herbicidal effect by foliage application, plastic box (Table 20, symbol I); type: in vivo, wild oat (Avena fatua); settings: foliage application, 320 g/ha, 3 weeks after application
In short: as §1

persian speedwell = assay: Test Example 5: herbicidal effect by foliage application, plastic box (Table 20, symbol R); type: in vivo, Persian speedwell (Veronica persica); settings: foliage application, 320 g/ha, 3 weeks after application
In short: as §1

lambsquarters [1] = assay: Test Example 5: herbicidal effect by foliage application, plastic box (Table 20, symbol O); type: in vivo, lambsquarters (Chenopodium album); settings: foliage application, 320 g/ha, 3 weeks after application
In short: as §1

lambsquarters [2] = assay: Test Example 4: herbicidal effect by soil treatment (Table 19, symbol O); type: in vivo, lambsquarters (Chenopodium album); settings: 320 g/ha
In short: (§5)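 Applied as a water-diluted emulsion, the compound was sprayed onto soil covering newly sown seeds. Evaluation came three weeks after application, in a greenhouse held at 25° C. to 30° C.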

velvetleaf [3] = assay: Test Example 4: herbicidal effect by soil treatment (Table 19, symbol M); type: in vivo, velvetleaf (Abutilon theophrasti); settings: 320 g/ha
In short: as §5

barnyard grass = assay: Test Example 4: herbicidal effect by soil treatment (Table 19, symbol H); type: in vivo, barnyard grass (Echinochloa crus-galli); settings: 320 g/ha
In short: as §5

wheat = assay: Test Example 5: effect on crop by foliage application, plastic box (Table 20, symbol e); type: in vivo; settings: 320 g/ha, 3 weeks after application
From the text: as §2, §3

green foxtail = assay: Test Example 4: herbicidal effect by soil treatment (Table 19, symbol G); type: in vivo, green foxtail (Setaria viridis); settings: 320 g/ha
In short: as §5

redroot pigweed = assay: Test Example 4: herbicidal effect by soil treatment (Table 19, symbol N); type: in vivo, redroot pigweed (Amaranthus retroflexus); settings: 320 g/ha
In short: as §5

beet = assay: Test Example 4: effect on crop by soil treatment (Table 19, symbol f); type: in vivo; settings: 320 g/ha
From the text: [Test Example 4] Herbicidal Effect Test by Soil Treatment
as §3, with “Subsequently,” for “Thereafter, the plants were grown in a greenhouse at 25° C. to 30° C. After 14-day growth of the plants,”, “the surface of the soil” for “a foliage part”, “spray. The plastic box was placed in a greenhouse at 25° C. to 30° C. for growth of the plants.” for “spray.”

velvetleaf [4] = assay: Test Example 5: herbicidal effect by foliage application, plastic box (Table 20, symbol M); type: in vivo, velvetleaf (Abutilon theophrasti); settings: foliage application, 320 g/ha, 3 weeks after application
In short: as §1

Italian ryegrass = assay: Test Example 4: herbicidal effect by soil treatment (Table 19, symbol K); type: in vivo, Italian ryegrass (Lolium multiflorum); settings: 320 g/ha
In short: as §5

Chinese sprangletop = assay: Test Example 3: herbicidal effect by foliage application, Wagner pot (Table 18, symbol D); type: in vivo, chinese sprangletop (Leptochloa chinensis); settings: 320 g/ha
In short: as §4

## Cc1nn(C)c(=O)c(-c2c(-c3ccc(OC(F)F)cc3)sc3ccc(F)cc23)c1O [Compound No. 2-042, 4-(2-(4-(difluoromethoxy)phenyl)-5-fluorobenzo[b]thiophen-3-yl)-5-hydroxy-2,6-dimethylpyridazin-3(2H)-one]
Directly sowed rice
  effect on crop b (directly sowed rice), rating 0-5: 1 (Herbicidal rate of 5% or more and less than 20%)
windgrass
  effect on windgrass (L): 5 (Herbicidal rate of 90% or more (almost completely withered))
blackgrass
  effect on blackgrass (J): 5 (Herbicidal rate of 90% or more (almost completely withered))
corn
  effect on corn (c): 0 (Herbicidal rate of 5% or less (almost no effect))
Rice flat sedge
  herbicidal effect on E (rice flat sedge), rating 0-5: 5 (Herbicidal rate of 90% or more (almost completely withered))
Wild oat
  effect on wild oat (I): 3 (Herbicidal rate of 40% or more and less than 70%)
Persian speedwell
  effect on persian speedwell (R): 5 (Herbicidal rate of 90% or more (almost completely withered))
Lambsquarters [1]
  effect on lambsquarters (O): 5 (Herbicidal rate of 90% or more (almost completely withered))
Lambsquarters [2]
  herbicidal effect rating, O: lambsquarters: 5 (Herbicidal rate of 90% or more (almost completely withered))
Velvetleaf [3]
  herbicidal effect rating, M: velvetleaf: 5 (Herbicidal rate of 90% or more (almost completely withered))
Barnyard grass
  herbicidal effect rating, H: barnyard grass: 4 (Herbicidal rate of 70% or more and less than 90%)
wheat
  effect on wheat (e): 1 (Herbicidal rate of 5% or more and less than 20%)
Green foxtail
  herbicidal effect rating, G: green foxtail: 5 (Herbicidal rate of 90% or more (almost completely withered))
Redroot pigweed
  herbicidal effect rating, N: redroot pigweed: 5 (Herbicidal rate of 90% or more (almost completely withered))
beet
  effect rating on crop, f: beet: 1 (Herbicidal rate of 5% or more and less than 20%)
Velvetleaf [4]
  effect on velvetleaf (M): 5 (Herbicidal rate of 90% or more (almost completely withered))
Italian ryegrass
  herbicidal effect rating, K: Italian ryegrass: 5 (Herbicidal rate of 90% or more (almost completely withered))
Chinese sprangletop
  herbicidal effect on D (Chinese sprangletop), rating 0-5: 3 (Herbicidal rate of 40% or more and less than 70%)
